# Source: US8748700B2, “Control of AAD-1 monocot volunteers in fields of dicot crops” (Dow AgroSciences, LLC., priority 2009, dated 2014)
# Tests used:
# [1] = test system: volunteer conventional or transgenic maize lines; assay: Control of volunteer maize in a field planted with AAD-maize using alternative herbicides (Table 6, herbicide options); type: in vivo; conditions: for Herbicides option - Burndown/PRE: planted: any AAD-1 hybrid of the table
# Text: In an embodiment, volunteer transgenic maize lines (containing the Clear Field trait, Roundup Ready or other Glyphosate Tolerant Trait, Liberty Link Trait, Imidazolonine tolerant trait, or any stacked combination thereof) or volunteer conventional maize lines are controlled within a field of transgenic AAD maize (AAD-1) by the application of aryloxyphenoxypropionate herbicide (Fops) including, but not limited to; quizalofop, haloxyfop, fenoxaprop, fluazifop, et al., their stereospecific isomers or racemic mixtures, and esters, acid, or salts thereof. In addition, the Fops herbicide may be applied with another herbicide(s) to control the volunteer maize lines described above.
# The application of a given herbicide can be made before planting at pre-emergence/burndown or post-emergence after planting to control the volunteer conventional or transgenic maize lines. Table 6 lists the herbicides to be used at the different stages of planting (pre-emergence or post-emergence) to control volunteer conventional or transgenic maize. At or about a 1× Field Rate concentration of herbicide would be applied, as either a tank mix or alone, to the field for both pre-emergent and post-emergent volunteer control.
# The control of conventional maize plants or transgenic maize plants containing a herbicide tolerant expression cassette within a field of AAD transgenic maize (either stacked with other herbicide tolerant traits or alone) would be applicable for the control of a herbicide tolerant transgenic monocot plant (including, but not limited too; corn, rice, sugar cane, switch grass, turf grass species, sorghum, barley, wheat, and oats, and durum) within a field being planted with an AAD monocot crop (including, but not limited too; corn, rice, sugar cane, switch grass, turf grass species, sorghum, barley, wheat, and oats, and durum). The example described above, in which volunteer transgenic herbicide tolerant maize plants are controlled in a field planted with AAD transgenic maize, is illustrative of the invention and not intended to restrict the scope of this embodiment.
# [2] = test system: Transgenic Hi-II maize plants containing the AAD-1 and PAT expression cassette (3404); assay: Post-emergent herbicide application on transgenic maize containing AAD-1 and PAT (pDAB3404), visual injury assessment; type: in vivo; conditions: for Tolerance (−/+) 3404: 3404 = molecular stack of AAD-1 and PAT crossed with CP4 for glyphosate tolerance, V1-V3 stage, 1x Field Rate, visual injury after 14 days; for Comment (activity in words): applies to both WT and AAD-1 plants; for injury: WT and 3404 not distinguished
# Method: Seed were planted into Metro Mix Media (Sun Gro Horticulture Inc., Bellevue, Wash.) and subirrigated with Hoagland's solution until wet, then allowed to gravity drain. Pots were placed in a glasshouse environment set to 27° C. until the germinated plants reached the V1-V3 growth stage. At or about, the V1-V3 growth stage, the maize plants were spayed using a track sprayer and a drop down nozzle calibrated to deliver a187 L/ha solution of herbicide at the 1× Field Rate (Table 7). After treatment the plants were placed in the greenhouse and scored via visual injury assessment after 14 days.
# [3] = volunteer: CL Corn, planted: AAD-1 + PAT + AHAS
# [4] = volunteer: CL Corn, planted: AAD-1 + PAT + GAT + ALS
# [5] = volunteer: CL Corn, planted: AAD-1 + PAT + GT
# [6] = volunteer: Conventional corn, planted: AAD-1 + PAT + AHAS
# [7] = volunteer: Conventional corn, planted: AAD-1 + PAT + GAT + ALS
# [8] = volunteer: Conventional corn, planted: AAD-1 + PAT + GT
# [9] = volunteer: RR or GT Corn (text printed beside the CL Corn lines r30-r36)
smiles,measurement,setting,value
O=C(O)CNCP(=O)(O)O [Glyphosate],Herbicides option - Burndown/PRE,[1]; volunteer: CL (or AHAS) + PAT,Glyphosate
same,Herbicides option - Burndown/PRE,[1]; volunteer: CL Corn,Glyphosate
same,Herbicides option - Burndown/PRE,[1]; volunteer: Conventional corn,Glyphosate
same,Herbicides option - Burndown/PRE,[1]; volunteer: GAT + ALS,Glyphosate
same,Herbicides option - Burndown/PRE,[1]; volunteer: LL Corn,Glyphosate
O=C(O)CNCP(=O)(O)O [glyphosate],Herbicides option - POST,"[1]; volunteer: CL (or AHAS) + PAT, planted: AAD-1 + AHAS",glyphosate
same,Herbicides option - POST,"[1]; volunteer: CL (or AHAS) + PAT, planted: AAD-1 + GAT + ALS",glyphosate
same,Herbicides option - POST,"[1]; volunteer: CL (or AHAS) + PAT, planted: AAD-1 + GT",glyphosate
same,Herbicides option - POST,"[1]; volunteer: CL (or AHAS) + PAT, planted: AAD-1 + PAT + AHAS",glyphosate
same,Herbicides option - POST,"[1]; volunteer: CL (or AHAS) + PAT, planted: AAD-1 + PAT + GAT + ALS",glyphosate
same,Herbicides option - POST,"[1]; volunteer: CL (or AHAS) + PAT, planted: AAD-1 + PAT + GT",glyphosate
same,Herbicides option - POST,"[1]; volunteer: CL Corn, planted: AAD-1 + AHAS",glyphosate
same,Herbicides option - POST,"[1]; volunteer: CL Corn, planted: AAD-1 + GAT + ALS",glyphosate
same,Herbicides option - POST,"[1]; volunteer: CL Corn, planted: AAD-1 + GT",glyphosate
same,Herbicides option - POST,[1]; [3],glyphosate
same,Herbicides option - POST,[1]; [4],glyphosate
same,Herbicides option - POST,[1]; [5],glyphosate
same,Herbicides option - POST,"[1]; volunteer: Conventional corn, planted: AAD-1 + AHAS",glyphosate
same,Herbicides option - POST,"[1]; volunteer: Conventional corn, planted: AAD-1 + GAT + ALS",glyphosate
same,Herbicides option - POST,"[1]; volunteer: Conventional corn, planted: AAD-1 + GT",glyphosate
same,Herbicides option - POST,[1]; [6],glyphosate
same,Herbicides option - POST,[1]; [7],glyphosate
same,Herbicides option - POST,[1]; [8],glyphosate
same,Herbicides option - POST,"[1]; volunteer: LL Corn, planted: AAD-1 + AHAS",glyphosate
same,Herbicides option - POST,"[1]; volunteer: LL Corn, planted: AAD-1 + GAT + ALS",glyphosate
same,Herbicides option - POST,"[1]; volunteer: LL Corn, planted: AAD-1 + GT",glyphosate
same,Herbicides option - POST,"[1]; volunteer: LL Corn, planted: AAD-1 + PAT + AHAS",glyphosate
same,Herbicides option - POST,"[1]; volunteer: LL Corn, planted: AAD-1 + PAT + GAT + ALS",glyphosate
same,Herbicides option - POST,"[1]; volunteer: LL Corn, planted: AAD-1 + PAT + GT",glyphosate
CCSC(C)CC1CC(=O)C(/C(CC)=N/OC/C=C/Cl)=C(O)C1 (stereo not shown) [clethodim],Tolerance (−/+) 3404,[2],−
C[C@@H](Oc1ccc(Oc2ncc(Cl)cc2F)cc1)C(=O)O [clodinafop],Tolerance (−/+) 3404,[2],+
CC(C)N.O=C(O)CNCP(=O)(O)O [glyphosate-isopropylammonium],Tolerance (−/+) 3404,[2],+
CCO/N=C(\CC)C1=C(O)CC(c2c(C)cc(C)cc2C)CC1=O (stereo not shown) [tralkoxydim],Tolerance (−/+) 3404,[2],−
CP(=O)(O)CCC(N)C(=O)O (stereo not shown) [glufosinate-ammonium],Tolerance (−/+) 3404,[2],+
COC(=O)[C@@H](C)Oc1ccc(Oc2ncc(C(F)(F)F)cc2Cl)cc1 [haloxyfop-methyl R],Tolerance (−/+) 3404,[2],+
C[n+]1ccc(-c2cc[n+](C)cc2)cc1 [paraquat],Herbicides option - Burndown/PRE,[1]; volunteer: CL (or AHAS) + GT,paraquat
same,Herbicides option - Burndown/PRE,[1]; volunteer: CL (or AHAS) + PAT,paraquat
same,Herbicides option - Burndown/PRE,[1]; volunteer: CL Corn,paraquat
same,Herbicides option - Burndown/PRE,[1]; volunteer: Conventional corn,paraquat
same,Herbicides option - Burndown/PRE,[1]; volunteer: GAT + ALS + PAT,paraquat
same,Herbicides option - Burndown/PRE,[1]; volunteer: GAT + ALS,paraquat
same,Herbicides option - Burndown/PRE,[1]; volunteer: GT + CL (or AHAS) + PAT,paraquat
same,Herbicides option - Burndown/PRE,[1]; volunteer: GT + PAT,paraquat
same,Herbicides option - Burndown/PRE,[1]; volunteer: LL Corn,paraquat
same,Herbicides option - Burndown/PRE,[1]; [9],paraquat
COC(=O)C(C)Oc1ccc(Oc2ccc(Cl)cc2Cl)cc1 (stereo not shown) [diclofop-methyl],Tolerance (−/+) 3404,[2],−
same,Comment (activity in words),[2],Not active on grasses
CCc1cnc(C2=NC(C)(C(C)C)C(=O)N2)c(C(=O)O)c1 (stereo not shown) [imazethapyr],Tolerance (−/+) 3404,[2],−/+
same,injury,[2]; @ 70 g ai/ha,Need higher than 70 g ai/ha rate (50% injury @
CC(Oc1ccc(Oc2cnc3cc(Cl)ccc3n2)cc1)C(=O)O (stereo not shown) [quizalofop],Tolerance (−/+) 3404,[2],+
CP(=O)(O)CCC(N)C(=O)O (stereo not shown) [glufosinate],Herbicides option - POST,"[1]; volunteer: CL (or AHAS) + GT, planted: AAD-1 + PAT",glufosinate
same,Herbicides option - POST,"[1]; volunteer: CL (or AHAS) + GT, planted: AAD-1 + PAT + AHAS",glufosinate
same,Herbicides option - POST,"[1]; volunteer: CL (or AHAS) + GT, planted: AAD-1 + PAT + GAT + ALS",glufosinate
same,Herbicides option - POST,"[1]; volunteer: CL (or AHAS) + GT, planted: AAD-1 + PAT + GT",glufosinate
same,Herbicides option - Burndown/PRE,[1]; volunteer: CL (or AHAS) + GT,glufosinate
same,Herbicides option - Burndown/PRE,[1]; volunteer: CL (or AHAS) + PAT,glufosinate
same,Herbicides option - POST,"[1]; volunteer: CL Corn, planted: AAD-1 + PAT",glufosinate
same,Herbicides option - POST,[1]; [3],glufosinate
same,Herbicides option - POST,[1]; [4],glufosinate
same,Herbicides option - POST,[1]; [5],glufosinate
same,Herbicides option - Burndown/PRE,[1]; volunteer: CL Corn,glufosinate
same,Herbicides option - POST,"[1]; volunteer: Conventional corn, planted: AAD-1 + PAT",glufosinate
same,Herbicides option - POST,[1]; [6],glufosinate
same,Herbicides option - POST,[1]; [7],glufosinate
same,Herbicides option - POST,[1]; [8],glufosinate
same,Herbicides option - Burndown/PRE,[1]; volunteer: Conventional corn,glufosinate
same,Herbicides option - POST,"[1]; volunteer: GAT + ALS, planted: AAD-1 + PAT",glufosinate
same,Herbicides option - POST,"[1]; volunteer: GAT + ALS, planted: AAD-1 + PAT + AHAS",glufosinate
same,Herbicides option - POST,"[1]; volunteer: GAT + ALS, planted: AAD-1 + PAT + GAT + ALS",glufosinate
same,Herbicides option - POST,"[1]; volunteer: GAT + ALS, planted: AAD-1 + PAT + GT",glufosinate
same,Herbicides option - Burndown/PRE,[1]; volunteer: GAT + ALS,glufosinate
same,Herbicides option - Burndown/PRE,[1]; [9],glufosinate
same,Herbicides option - POST,"[1]; volunteer: RR or GT Corn, planted: AAD-1 + PAT",glufosinate
same,Herbicides option - POST,"[1]; volunteer: RR or GT Corn, planted: AAD-1 + PAT + AHAS",glufosinate
same,Herbicides option - POST,"[1]; volunteer: RR or GT Corn, planted: AAD-1 + PAT + GAT + ALS",glufosinate
same,Herbicides option - POST,"[1]; volunteer: RR or GT Corn, planted: AAD-1 + PAT + GT",glufosinate
CCC/C(=N\OCC)C1=C(O)CC(CC(C)SCC)CC1=O (stereo not shown) [sethoxydim],Tolerance (−/+) 3404,[2],−
CCOC(=O)[C@@H](C)Oc1ccc(Oc2nc3ccc(Cl)cc3o2)cc1 [fenoxaprop-P-ethyl],Tolerance (−/+) 3404,[2],+
CCCCOC(=O)[C@@H](C)Oc1ccc(Oc2ccc(C(F)(F)F)cn2)cc1 [fluazifop-P-butyl],Tolerance (−/+) 3404,[2],+
COCc1cnc(C2=NC(C)(C(C)C)C(=O)N2)c(C(=O)O)c1 (stereo not shown) [imazamox],Tolerance (−/+) 3404,[2],−
CC(C)C1(C)N=C(c2nc3ccccc3cc2C(=O)O)NC1=O (stereo not shown) [imazaquin],Tolerance (−/+) 3404,[2],−/+
same,injury,[2]; @ 50 g ai/ha,Need higher than 50 g ai/ha rate (50% injury @
CCCCOC(=O)[C@@H](C)Oc1ccc(Oc2ccc(C#N)cc2F)cc1 [cyhalofop-butyl],Tolerance (−/+) 3404,[2],+
CCc1cc(C)cc(CC)c1-c1c(OC(=O)C(C)(C)C)n2n(c1=O)CCOCC2 [pinoxaden],Tolerance (−/+) 3404,[2],+/−
same,Comment (activity in words),[2],Not active but small amt of control on both WT
